Reference: patent US9670238B1 (priority 2015, dated 2017)
“Also recorded” adds a separate entry of the source. Read-outs that look alike come from different tables or passages of the source.

Tests used:
[1] = target: T1, CDA (1-146aa), Human, His-tagged, Recombinant cytidine deaminase (Homo sapiens, UniProt P32320); format: in vitro ADME; conditions: PBS with cytidine deaminase, 37° C., about 30 minutes to 1 hour
T1 construct: CDA (1-146aa), Human, His-tagged; His tag; purchased ATGen
Description: 1 mg each of the 5′-dibenzyl phosphate derivatives of 5-azacytidines (formula (1)) was dissolved in 1 mL of acetonitrile. 10 μL of the solution was diluted with 1 mL of PBS. 10 μL of PBS solution of cytidine deaminase was added and stirred at 37° C. for about 30 minutes to 1 hour. 1 mL of acetonitrile was added to the reaction solution and separated by centrifugation. The supernatant obtained was analyzed with HPLC.
Cytidine deaminase: CDA (1-146aa), Human, His-tagged, Recombinant cytidine deaminase (ATGen)
Column: CAPCELL PAK ADME (4.6 mm×150 mm, particle size:3 μm)
Elution: A=Purified water containing 10 mM ammonium formate • B=Acetonitrile • Gradient mode: A:B=99:1→5:95/30 minutes

[2] = tested on: myeloma cells (RPMI-8226); test: Anti-myeloma activity, inhibition of cell proliferation; format: cell-based; conditions: RPMI-8226, 72 hours incubation, cell count
Description: To the solutions containing about 4000 myeloma cells (RPMI-8226), solutions of 5′-dibenzyl phosphate derivatives of 5-azacytidines at concentrations of 0.0033 μM, 0.01 μM, 0.033 μM, 0.1 μM, 0.33 μM, 1 μM, 3.3 μM, 10 μM, 33 μM, or 100 μM were added. After incubation in RPMI-1640 (containing 10% FBS and 1% Penn-strep) for 72 hours, cell count was determined and the values of IC50 were calculated as inhibitory effect against cell proliferation (referring to Journal of Clinical Pathology, 2006, 59, 947-951).

[3] = Non-enzymatic hydrolysis reactivity in PBS solution at 37° C. (HPLC); format: physicochemical; conditions: for 5-Azacytidine or 2′-deoxy-5-azacytidine (%) After 4 hours / 5-Azacytidine or 2′-deoxy-5-azacytidine (%) After 8 hours / 5-Azacytidine or 2′-deoxy-5-azacytidine (%) After 24 hours: PBS pH7.4 to 7.5, 37° C.; for Hydrolysis in PBS solution to the corresponding 5-azacytidines (in words): 37° C., up to 24 hours
Description: About 1 mg each of the obtained 5′-dibenzyl phosphate derivatives of 5-azacytidines (referring to formula (1)), such as O,O′-dibenzyl 5-azacytidylate (compound A) or O,O′-dibenzyl 2′-deoxy-5-azacytidylate (compound B) was dissolved in 1 mL of acetonitrile. 5 μL of the solution was added to 100 μL of PBS solution (pH7.4 to 7.5) and the solution was stirred at 37° C. The reactions were traced by HPLC analysis.
HPLC conditions were same as those in test example 1.

[4] = Partition coefficient (n-octanol/PBS); format: physicochemical
Text: The separation systems using a silica gel column, separation yields, data obtained from instrumental analysis and partition coefficients of 5′-dibenzyl (or diphenethyl, diphenyl) phosphate derivatives of 5-azacytidines (compounds A to H) which were synthesized according to the methods A and B are shown as below.

T1 sequence (P32320 whole entry): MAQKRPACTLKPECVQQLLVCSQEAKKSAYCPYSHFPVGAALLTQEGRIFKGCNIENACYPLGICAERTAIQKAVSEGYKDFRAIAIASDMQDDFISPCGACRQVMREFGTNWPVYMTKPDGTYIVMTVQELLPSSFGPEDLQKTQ

Molecule	Change in HPLC pattern (peak of the starting material) [1]	Change in HPLC pattern (peak of the starting material) ([1]; listed as 2′-deoxy-5-azacytidine)	IC50 ([2]; Homo sapiens)	IC50 [2]	5-Azacytidine or 2′-deoxy-5-azacytidine (%) After 4 hours [3]	5-Azacytidine or 2′-deoxy-5-azacytidine (%) After 8 hours [3]	5-Azacytidine or 2′-deoxy-5-azacytidine (%) After 24 hours [3]	Hydrolysis in PBS solution to the corresponding 5-azacytidines (in words) [3]	Partition coefficient, Log P [4]
Nc1ncn([C@H]2C[C@H](O)[C@@H](CO)O2)c(=O)n1 [2′-Deoxy-5-azacytidine, 2′-deoxy-5-azacytidine, reference compound]	The peak of the starting material disappeared	disappeared completely	30 nM						
O,O′-di(4-fluoro)benzyl 2′-deoxy-5-azacytidylate [compound D]	Almost no change in the peak of the starting			780 nM					
O,O′-dibenzyl 2′-deoxy-5-azacytidylate [compound B]	Almost no change in the peak of the starting				8%	8%	45%	gradually hydrolyzed	
O,O′-dibenzyl 5-azacytidylate [compound A]	Almost no change in the peak of the starting			1710 nM	18%	35%	67%	gradually hydrolyzed	0.83
O,O′-diphenethyl 5-azacytidylate [compound F]	Almost no change in the peak of the starting							almost no change was confirmed even after 24 hours; also recorded: could not be observed	
O,O′-diphenyl 2′-deoxy-5-azacytidylate [compound H]	extremely stable								
O,O′-diphenyl 5-azacytidylate [compound G]	extremely stable			> 100000 nM				almost no change was confirmed even after 24 hours; also recorded: could not be observed	
